The test system of one experiment is GFP-wt-CFTR. Kind of experiment: Image Correlation Spectroscopy of GFP-wt-CFTR aggregation at the plasma membrane. The conditions noted are these: for CFTR clustering / platforms (degree of aggregation) at the plasma membrane: primary human bronchial epithelial cells, fenretinide 1.25 μM 24 h pretreatment, Thaps 2 μM 10-20 min. Format: cell-based, human. On the procedure:
FIGS. 3A-E are confocal images of GFP-wt-CFTR expressed at the plasma membrane of pHBE cells under control conditions (Ctr) (FIG. 3A); after 10-20 min treatment with 2 μM Thapsigargin (FIG. 3B); after treatment with 1.25 μM Fenretinide (FIG. 3C); after treatment with 1.25 μM Fenretinide and Thapsigargin (same conditions as above) (FIG. 3D); or after treatment with 1.25 μM Fenretinide+Thapsigargin (same conditions as above)+Amitriptyline (13 μM for 40 min) (FIG. 3E).
FIG. 3F is a graph showing the quantification of CFTR aggregation and accumulation at the cell surface under control conditions (Ctr), after treatment with Thapsigargin (Thaps), after treatment with Fenretinide (Fen), and after treatment with Fenretinide and Thapsigargin (Fen+Thaps).
It was next tested whether fenretinide and/or zinc could have an effect on the ability of native CFTR-expressing epithelial cells to transport chloride. CFTR is known to become localized in relatively stable platforms during viral infection (Abu-Arish et al., 2015). The formation of such platforms expressing CFTR was measured following treatment with fenretinide. The Image Correlation Spectroscopy technique was used to measure the degree of aggregation of GFP-wt-CFTR at the plasma membrane of primary human bronchial epithelial cells. The degree of aggregation is proportional to the mean number of CFTR channels per cluster or platform. Confocal images of CFTR at the plasma membrane were collected for analysis under control (Ctr), thapsigargin (Thaps), fenretinide (Fen) or a combination of Fen+Thaps. Cells were pretreated or not with fenretinide at 1.25 μM for 24 h before imaging whereas Thaps (2 μM) exposures were acute (10-20 min).

For experiment [1], the system named is cytoplasmic phospholipases (cPLA2). Kind of experiment: cPLA2 activity in lung epithelial cells (commercial kit). Format: cell-based, human. The method, then: FIG. 1 is a graph showing the effect of fenretinide and Zn^2+ treatment on the activity of cytoplasmic phospholipases (cPLA2). Lung epithelial cells were treated with 1.25 μM fenretinide (Fen) and/or 12.5 μM zinc sulfate (Zn^2+) for 12, 24, 48 or 72 hours and the activity of PLA2 was assessed using a commercially available ELISA kit (Abcam, cat. No. ab133090). All statistical analyses were performed using GraphPad™ software (GraphPad, San Diego, Calif., USA). Statistical significance of differences was evaluated using unpaired t-test with Welch's correction. Data are represented as means±SD (*p 0.05, **p 0.01, ***p 0.001, ****p 0.0001). All experiments were done in triplicates (n=3).
The effect of fenretinide (Fen) and/or zinc (Zn^2+) ions on the lipid metabolism in human airway epithelial cells was assessed the modulation of cytoplasmic phospholipases (cPLA2) activity. cPLA2 activity, as evaluated by colorimetric assay, was decreased following fenretinide treatment in a time dependent fashion, starting 24h after treatment (FIG. 1).

Experiment [2] has as its system airway epithelial cells overexpressing the delF508 mutated form of CFTR (delF508/delF508). Briefly: DHA and AA fatty acid levels in airway epithelial cells overexpressing delF508 CFTR. It is filed as cell-based, human. The conditions noted are these: 72h, relative to untreated cells; for DHA levels: 1.25 μM fenretinide and/or 12.5 μM zinc sulfate. On the procedure: FIGS. 2A-C are graphs showing the effect of fenretinide, Zn^2+ treatment on the level of DHA (FIG. 2A), AA (FIG. 2B) and their ratio (FIG. 2C) in lung epithelial cells overexpressing a mutant form of CFTR (CFTR-delF508) or native CFTR (wt CFTR). Lung epithelial cells grown as 80% confluent monolayer of were treated for 72h with 1.25 μM fenretinide and/or 12.5 μM zinc sulfate. The levels of AA and DHA were assessed as previously described in Guilbault et al. 2008, 2009. All statistical analyses were performed using GraphPad™ software (GraphPad, San Diego, Calif., USA). Statistical significance of differences was evaluated using unpaired t-test with Welch's correction. Data are represented as means±SD (*p≤0.05, **p≤0.01, ***p≤0.001, ****p≤0.0001). All experiments were done in triplicates (n=3).
It was next assessed whether fenretinide and zinc modulate the levels of omega-3 (docosahexaenoic acid, DHA) and omega-6 (arachidonic acid, AA) fatty acids in airway epithelial cells overexpressing the delF508 mutated form of CFTR (delF508/delF508) or native CFTR (wt CFTR). […] For AA levels, all treatments led to a significant decrease in AA levels in delF508 CFTR-expressing cells (relative to untreated cells), but not in native CFTR-expressing cells.

Another experiment has as its target T1, F508del-CFTR (Homo sapiens, UniProt P13569, DEL508-508).
T1 construct: host or cells: polarized bronchial epithelial cells
Kind of experiment: Ussing chamber F508del-CFTR conductance across basally permeabilized polarized cells. It is filed as cell-based. To be noted: 1.25 μM Fen alone for 3 days, 1 μM VX-809 last 24h. On the procedure:
FIG. 5 is a graph showing the effect of Zinc and/or Fenretinide treatment on F508del-CFTR function after partial rescue by VX-809 (809) in the absence and presence of 50 μM of the potentiator genistein (acts similarly to VX770). Ussing Chambers were used to measure F508del-CFTR conductance by measuring the short-circuit current across basally permeabilized polarized cells in response to forskolin (FSK) or forskolin+genistein (FSK+Gen). Treatment: Cells were treated basally or not with 1.25 μM fenretinide (Fen) or the combination a combination of 1.25 μM Fenretinide and 12.5 μM Zinc (FenZn) for 3 days. 1 μM VX-809 was added bilaterally during the last 24h. Unpaired student t-test was used for statistical analysis.
FIG. 6 is a graph showing the effect of Zinc and/or Fenretinide treatment on F508del-CFTR mediated secretion in the absence of VX-809. Ussing Chambers were used to measure F508del-CFTR functional expression as short-circuit current across polarized and basally permeabilized bronchial epithelial cells in response to forskolin (FSK) or forskolin+genistein (FSK+Gen). Cells were treated basally or not with 1.25 μM Fenretinide (Fen) and/or 12.5 μM Zinc (Zn) for 3 days. […]

T1 sequence (P13569 with tags, fused parts or gaps DEL508-508): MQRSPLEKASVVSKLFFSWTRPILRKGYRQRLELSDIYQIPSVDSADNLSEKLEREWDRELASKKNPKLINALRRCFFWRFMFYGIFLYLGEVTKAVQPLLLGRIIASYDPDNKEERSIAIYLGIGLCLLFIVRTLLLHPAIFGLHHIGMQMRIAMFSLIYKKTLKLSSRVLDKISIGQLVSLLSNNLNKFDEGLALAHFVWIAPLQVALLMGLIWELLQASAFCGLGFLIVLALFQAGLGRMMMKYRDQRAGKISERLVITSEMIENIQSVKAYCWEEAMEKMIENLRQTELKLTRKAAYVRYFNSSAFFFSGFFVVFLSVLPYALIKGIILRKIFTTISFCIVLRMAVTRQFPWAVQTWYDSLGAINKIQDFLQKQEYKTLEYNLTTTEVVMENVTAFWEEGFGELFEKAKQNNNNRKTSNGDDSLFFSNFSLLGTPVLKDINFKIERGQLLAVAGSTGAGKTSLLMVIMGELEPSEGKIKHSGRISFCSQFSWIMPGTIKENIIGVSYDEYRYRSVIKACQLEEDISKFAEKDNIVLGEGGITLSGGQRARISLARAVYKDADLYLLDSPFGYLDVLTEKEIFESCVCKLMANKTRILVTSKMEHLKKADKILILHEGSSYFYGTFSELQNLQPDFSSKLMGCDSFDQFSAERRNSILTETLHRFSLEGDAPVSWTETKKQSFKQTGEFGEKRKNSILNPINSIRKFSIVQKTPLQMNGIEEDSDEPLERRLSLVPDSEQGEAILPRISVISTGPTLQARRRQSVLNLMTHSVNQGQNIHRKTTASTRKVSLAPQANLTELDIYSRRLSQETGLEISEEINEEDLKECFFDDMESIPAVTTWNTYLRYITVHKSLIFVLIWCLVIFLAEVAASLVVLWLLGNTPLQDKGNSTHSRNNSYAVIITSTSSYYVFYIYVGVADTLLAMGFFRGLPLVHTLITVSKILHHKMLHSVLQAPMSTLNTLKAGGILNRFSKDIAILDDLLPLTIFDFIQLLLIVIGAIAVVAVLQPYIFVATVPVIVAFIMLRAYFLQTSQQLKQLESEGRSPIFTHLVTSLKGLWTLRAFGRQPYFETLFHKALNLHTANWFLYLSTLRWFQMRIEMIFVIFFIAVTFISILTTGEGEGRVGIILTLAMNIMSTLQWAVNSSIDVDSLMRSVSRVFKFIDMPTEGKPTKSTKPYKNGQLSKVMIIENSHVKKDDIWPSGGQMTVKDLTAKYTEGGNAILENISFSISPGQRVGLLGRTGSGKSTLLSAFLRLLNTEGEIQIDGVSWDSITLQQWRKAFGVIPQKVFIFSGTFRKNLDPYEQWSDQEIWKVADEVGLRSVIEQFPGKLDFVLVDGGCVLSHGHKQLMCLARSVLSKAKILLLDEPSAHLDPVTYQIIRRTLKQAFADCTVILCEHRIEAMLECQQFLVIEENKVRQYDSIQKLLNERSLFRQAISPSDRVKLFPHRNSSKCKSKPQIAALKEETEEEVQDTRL

For `C/C=C(/C)C(=O)O[C@H]1C(C)=C2[C@H]([C@@H]1OC(=O)CCCCCCC)[C@@](C)(OC(C)=O)C[C@H](OC(=O)CCC)[C@@]1(O)[C@H]2OC(=O)[C@@]1(C)O` [thapsigargin], in the experiment with GFP-wt-CFTR, the “CFTR clustering / platforms (degree of aggregation) at the plasma membrane” value is reported as “induces some CFTR platforms”.
As for `CN(C)CCC=C1c2ccccc2CCc2ccccc21` [Amitriptyline], the “Induction of CFTR platform formation by fenretinide+thapsigargin” value in the experiment on GFP-wt-CFTR (in the presence of Amitriptyline 13 μM for 40 min) is reported as “inhibited”.
As for zinc sulfate, the cPLA2 activity entry in experiment [1] (12.5 μM zinc sulfate in the absence of fenretinide, 72h) is recorded as “significantly increase”. The “cPLA2 activity, effect of zinc added to fenretinide” value in experiment [1] (12.5 μM zinc sulfate with 1.25 μM fenretinide, 24h and 48h) is reported as “potentiate the effect of fenretinide”. In experiment [2], the DHA levels entry is “significant increase” and the DHA/AA ratio result is recorded as “significant increase”.
With `CC1=C(/C=C/C(C)=C/C=C/C(C)=C/C(=O)Nc2ccc(O)cc2)C(C)(C)CCC1` [fenretinide, all-trans-N-(4-hydroxyphenyl) retinamide], the F508del-CFTR channel function result at F508del-CFTR was “significant increase”. Besides, the “CFTR clustering / platforms (degree of aggregation) at the plasma membrane” value in the experiment on GFP-wt-CFTR is listed as “did not affect CFTR clustering”. Further, in experiment [1] (1.25 μM fenretinide, 12, 24, 48 or 72 hours), the cPLA2 activity entry is given as “decreased”. Moreover, in experiment [2], the DHA levels result is on record as “significant increase” and the DHA/AA ratio result is “significant increase”.

Values taken from US11510945B2, “Compositions and methods for enhancing ion transporter activity and uses thereof” (THE ROYAL INSTITUTION FOR THE ADVANCEMENT OF …, priority 2018, dated 2022).
